Key:
HL-60 cells = assay: Morphological and growth characteristics of HL-60 cells; format: cell-based, human; conditions: sulfates, living cell culture
Description: However, articles about an important role of EMT in the study of lymphomas and leukemias as well have started coming out recently, which is an interesting stage in the research into the tumor process as a whole, since these tumors radically differ from “usual solid neoplasias” in their histogenesis and, accordingly, in their phenotypic characteristics. Thus, such comprehensive research into adhesion proteins and cell cytoskeleton in the tumor cells of Burkitt lymphoma and acute promyelocyte leukemia after the action of the group of components under study is a relevant and contemporary attempt of a deeper analysis of the modification of a cell phenotype of tumor cells in order to assess changes in the degree of their malignancy. Materials and methods for leukemia cell lines HL-60 and Namalva and cell culture conditions will now be described. […] The first plate was for coloring cells with trypan blue and the second one was for the MTT assay.
After preparation of the corresponding concentrations of the components, they were introduced into appropriate wells of the plate in which HL-60 or Namalva cell were in complete medium. The volume of the culture medium with cells was 100 mcl per well and the concentration of cells in the suspension was 3×10^5 cells/ml (3×10^6/plate). […]

[1] = system: renal cell carcinoma (PA) cells; assay: Transformation of PA tumor cells into type A/B cells (trypan blue); format: cell-based, rat; conditions: for concentration of cells of type A at first calculation: 10 hours after start, both concentration models; for time for 80% of the transformation into phenotype A: total time 140 hours
Description: Staining of Cell Suspension with Trypan Blue and Visual Control of Changes in the Shape, Color and Size of the Cells will now be discussed. The visual control method was based on the observation of state of the plasma membrane permeability after the action of materials under study, and reflects the degree of membrane's damage, making it possible to estimate an ability of nuclear proteins to absorb the dye.
To make the analysis, the cell suspension, after it was exposed to the action of materials, in a volume of 20 mcl was mixed with 20 mcl of trypan blue solution and resuspended. The obtained solution was placed in a hemocytometer chamber for visual analysis and quantitative estimation of the cells. To make the quantitative estimation of the cells, they were separated from the substrate using Versene solution and counted by staining cells with trypan. A change in the color of a cell was indicative of the violation of intactness of the cell membrane, and the more pronounced was the coloration, the less viable the cell was. […] They are easily distinguishable from dark damaged cells and easily identified with ordinary light microscope.
Primary cell culture for our in vitro experiments was obtained by enzymatic treatment of tumor material (using trypsin solution) from a strain of renal cell carcinoma (PA) in a rat Visually (after its removal from the animal), the tumor looked as a nodular fleshy growth of a whitish-pink color of rather dense consistency, marginated from other tissues by a joint capsule. The main morphological signs of PA tumor in the animal can be described as follows. Small (1.5 to 2 grams) fragments without vessels and blastic lesions were excised aseptically from the surgically removed tumor and then cut them with scissors to smaller pieces of 0.2 to 0.3 mm in size and cultured in a solution of trypsin. The culture medium contained the following components: RPMI-1640 (Sigma, USA) as the base plus 10% newborn calf serum and 40 mcg/ml of gentamicin. Trypsinization was performed in a humidified atmosphere of 5% CO2 at 37° C. with constant mixing of the contents in a magnetic stirrer. The isolated cells were washed three times in a culture medium by centrifuging and before starting the experiment a quantitative assessment of cells was carried out in the Goryaev chamber with supravital staining of the cells with trypan blue.
Analysis of the effect of all components on the renal cell carcinoma (PA) was conducted to determine the relationship between the amount of the preparation (concentration characteristics of the component) and the quantitative characteristics of the cells. Assessment of the effect of the components was carried out on 2 concentration models with 30 and 300 thousand original tumor cells. After the cells were cultured, cell suspensions were prepared in the plates with the culture medium and an effect of the preparations (in various concentrations) on the tumor cells was assessed. The experiment was started with the concentration of 10 mg of the active substance per 1 ml of the solvent (saline with 5% glucose).
The amount of culture medium in each well was 200 mcl for 30 thousand cells and 2 ml for 300 thousand cells, respectively. The amounts of drugs (active substances) for 2 concentration models differed according to the amount of cells and culture medium, i.e., the amount of drug in the experiment with 300 thousand cells was ten times as large as compared with the same in the experiment with 30 thousand cells. The result of effects of the components is shown in FIGS. 22, 23 for light isotope components and in FIG. 25 for the elements with natural distribution of isotopes. Assessment of the effect of the components was performed by comparing the external factors of cells (color, size, shape) prior to the experiment and after staining. […]

COLO 205 cell line = assay: Cytogenetic analysis (micronucleus test) of COLO 205 cells; format: cell-based, human; conditions: ^39K 2 mg/ml, ^64Zn 20 mcg/ml, ^24Mg 4 mg/ml
Experimental: Advanced Micronucleus Test was used to assess the cytogenetic characteristics of cells after their exposure to the action of the test group of components.
Cytogenetic analysis was carried out after 48 hours of exposure of the cells to the action of the components. For cytogenetic analysis, the cells were incubated in hypotonic solution KCl (0.54%) (Reahim, Ukraine) for 40 minutes at +37° C. Then they were fixed with a mixture of methyl alcohol (Reahim, Ukraine) and acetic acid (Himlaborreaktiv, Ukraine) (3:1) with replacing the fixative three times. All fixed cell suspensions were applied on cold wet glasses, dried and stained with Giemsa stain (Sigma, Germany). The cytogenetic preparations were analyzed using a binocular microscope Sari Zeiss, AxioStarPlus (Germany) with magnification of x 1000. The following quantitative characteristics and stages of cell division were analyzed on the preparations: mitoses, cells with premature chromosome condensation (PCC), cells with micronuclei (CMN), apoptotic cells and cells with nuclear protrusions (protrusions) which were calculated for 1000 cells and expressed in per mille (%).

[2] = system: normal rat kidney cells (NRK cell line); assay: Effect on normal rat kidney cells versus Doxorubicin
Description: An immortalized cell line is a stable, capable of unlimited proliferation cell line that consists of cells with […] in culture.

A-549 cell line = assay: Scratch assay, A-549 cells; conditions: for time of restoration of the cell monolayer: dose not stated, 24 hours in the control; for restoration of the cell monolayer after 72 hours: ^64Zn 20 and 30 mcg/ml, ^39K 2 mg/ml, control restored after 24 hours
[3] = system: A-549 cell line (human lung cancer); assay: Type A cell transformation of A-549 cells, effect of solution storage; format: cell-based
Experimental: Alluding to the above, the effect of accumulation of antitumor properties of light isotopes containing materials on A-549 tumor cell line will now be discussed. When working with the preparations under study, it was noted that the functional activity of certain doses of the components increased over time after preparation of the solution and its subsequent storage at t+4° C. […] The preparation was stored at the temperature of […].

[4] = system: normal rat kidney cells (NRK cell line); assay: Scratch assay, NRK cells; format: cell-based; conditions: various doses; as in the control
Experimental: The cells of A-549, A-431, NRK, HaCaT, MM-4, normal fibroblasts (derived from the Bank of Cell Lines from human and animal tissues, R. E. Kavetsky Institute of Experimental Pathology, Oncology and Radiobiology, National Academy of Sciences of Ukraine) were cultured in complete culture medium RPMI 1640/DMEM (PAA, Austria) (depending on the cell type) supplemented with 10% fetal calf serum (PAA, Austria) and incubated in 5% CO2 humidified atmosphere at 37° C. The culture medium was replaced in 2 to 3 days and the cells were passaged in 4 to 5 days.
Analysis of the influence of the components under study on the cell migration rate was performed using the scratch assay method. Cells (5×10^4/well) were seeded into the wells of a 12-well plate in 2 repeats in RPMI-1640/DMEM culture medium supplemented with 10% PBS, 40 mcg/ml of gentamicin and incubated in 5% CO2 humidified atmosphere at 37° C. for 24 hours.
The plate was incubated in a CO2 incubator for additional 48 hours. After the cells formed a dense monolayer it was damaged (by making a “scratch”) and the growth medium was replaced to remove cell debris and smooth the edges of the “scratch.” The rate of cell migration was analyzed using an inverted microscope and by photographing cells in the area of injury. The migration activity of cells was fixed at several time points (depending on the cell line analyzed). The microphotomicrographs were analyzed and the cell incubation time needed to restore the monolayer was determined for all experimental groups.

SMILES | morphological and growth characteristics (adhesion) (HL-60 cells) | concentration of cells of type A at first calculation [1] [%] | changes (cell transformation) in the first 10 hours [1] [%] | time for 80% of the transformation into phenotype A [1] [h] | tumor proliferation (cell division) at the stage of G2/M (COLO 205 cell line) | effect on functional properties of NRK cells [2] | time of restoration of the cell monolayer (A-549 cell line) [h] | time of transformation of 100% initial tumor cells into phenotype A [1] [h] | time of restoration of the damaged monolayer [4] [h] | restoration of the cell monolayer after 72 hours (A-549 cell line) | further results
O=S(=O)([O-])[O-].[24Mg+2] [^24Mg] | significant enhancement of adhesion of cells to the substrate | 100 | 62 | ≤ 45 | inhibition of tumor proliferation | did not affect functional properties | 72 |  |  |  | cells of type A ([1]; ^24Mg 0.4 mg/ml): about 5%; cells of type A ([1]; ^24Mg 2 mg/ml): 25%; cells of type B ([1]; ^24Mg 2 mg/ml): 75%; cells of type A ([1]; ^24Mg 10 mg/ml): 100%
[39K+].[Cl-] [^39K] |  | 100 | 40 | ≤ 20 | inhibition of tumor proliferation |  | 72 | 80 | 30 | incomplete | A cells ([1]; ^39K 2 mg/ml): About 50%; cells of type A ([1]; ^39K 10 mg/ml): 100%; transformation of initial tumor cells to cells of type A ([3]; ^39K 0.4 mg/ml, in both cases): 100%; transformation of initial tumor cells to cells of type A ([3]; ^39K 10 mg/ml): no transformational effect was found; number of cells of type A after 20 days of storage vs first day ([3]; ^39K sulphate form 2 mg/ml): 2 fold
O=S(=O)([O-])[O-].[64Zn+2] [^64Zn] | significant enhancement of adhesion of cells to the substrate |  | 80 | ≤ 10 | inhibition of tumor proliferation | did not affect functional properties | 72 | ≤ 50 | 30 | incomplete | A cells ([1]; ^64Zn 0.08 mg/ml): 100%; cells of type A ([1]; ^64Zn 0.128 mg/ml): about 30%; cells of type A obtainable with 1 microgram of ^64Zn sulfate ([1]; assuming 50% of cells transformed): 23438 cells; cells of type A obtainable with 1 microgram of ^64Zn sulfate ([1]; assuming 100% transformation): 938 cells; cells of type A ([3]; ^64Zn sulphate, after 28 days): About 50%
